How the values were obtained:
[1] = Cytotoxicity against human A375S2 cells assessed as induction of cell death at 30 ug/mL by MTT assay; format: functional, A375-S2
[2] = Cytotoxicity against human A375S2 cells assessed as induction of cell death at 20 ug/mL by MTT assay; format: functional, A375-S2

## CCCCCCCCCCCCCCCCCCCCCCC[C@@H](O)C(=O)N[C@@H](CO)[C@H](O)[C@H](O)C/C=C/CCCCC1CC1CCCC (stereo partly drawn) [GRACILAMIDE A]
[1]
  Activity: 11.7%

## CCCCCCCCCCCCCCCCCCCCCC[C@@H](O)[C@@H](O)[C@H](CO)NC(=O)[C@H](O)CCCCCCCCC1CC1CCCC (stereo partly drawn) [GRACILAMIDE B]
[1]
  Activity: 11.7%

## CCCCCCCCCCCCCCCCCCCCCCC[C@@H](O)C(=O)N[C@@H](CO[C@@H]1O[C@H](CO)[C@@H](O)[C@H](O)[C@H]1O)[C@H](O)[C@H](O)C/C=C/CCCCC1CC1CCCC (stereo partly drawn) [GRACILARIOSIDE]
[2]
  Activity: 18.2%
